# The source made the active and inactive calls. The rule behind the calls is not given here.
# How the values were obtained:
# Staphylococcus aureus [1] = assay: Antibacterial activity against methicillin-resistant Staphylococcus aureus infected in BALB/c mouse wound model assessed as decrease in wound area at 20 to 80 mg/kg administered topically on days 0, 3 and 6 measured after 12 days; assay type: functional, organism-based; details: dose 20-80 mg/kg, route top, time 12.0 day
# Listeria monocytogenes = assay: Bactericidal activity against Listeria monocytogenes EGD; assay type: functional
# Staphylococcus aureus [2] = assay: Antibacterial activity against Staphylococcus aureus USA300 assessed as acceleration of TCA cycle measured by increase in gltA mRNA level upto 0.25 ug/ml incubated for 6 hrs by RT-PCR analysis; assay type: functional, organism-based; details: dose <= 0.25 µg/ml
# Staphylococcus aureus [3] = assay: Inhibition of resistance development in Staphylococcus aureus USA300 incubated for 24 hrs measured after 14 passages by broth microdilution method; assay type: functional, organism-based
# Streptococcus suis = assay: Bactericidal activity against Streptococcus suis ZY05719; assay type: functional
smiles,measurement,setting,value
CCn1c(=O)c(C(=O)Nc2nnc(-c3ccc(C)cn3)s2)c(O)c2ccccc21,Activity,Staphylococcus aureus [1],Active
same,MBC,Listeria monocytogenes,> 0.25 µg/mL
same,Activity,Staphylococcus aureus [2],Active
same,inhibition,Staphylococcus aureus [3],Active
same,MBC,Streptococcus suis,0.1 µg/mL

# From ChEMBL document CHEMBL6121054, “Discovery of Metabolic Reprogramming 2-Quinolones as Effective Antimicrobials for MRSA-Infected Wound Therapy” (J Med Chem, 2025)
